Data reported in US20200247808A1, “Heterocyclic Tec-Family Kinase Inhibitors” (GB005, Inc., priority 2015, published 2020).
Like-named read-outs stand apart in the source and are kept apart here.

Legend:
human BTK = biological target: T1, human BTK (Homo sapiens, UniProt Q06187); test: BTK kinase inhibition, KinaseProfiler radiometric protein kinase assay (Eurofins); format: biochemical
T1 construct: purchased Eurofins Pharma Discovery Services UK Limited (contract assay, KinaseProfiler)
Procedure: In vitro potency of selected compound was defined against human BTK, EGFR, and ErbB2 kinases using Kinase Profiler radiometric protein kinase assays performed at Eurofins Pharma Discovery Services UK Limited.
Each kinase is diluted in buffer and all compounds were prepared to 50x final assay concentration in 100% DMSO. This working stock of the compound was added to the assay well as the first component in the reaction, followed by the remaining components as detailed in the assay protocol listed above. The reaction was initiated by the addition of the MgATP mix. […] (specific activity approx. 500 cpm/pmol, concentration as required) and variable test article concentrations. […] The reaction was stopped by the addition of 3% phosphoric acid solution. 10 μL of the reaction is then spotted onto a P30 filtermat and washed three times for 5 minutes in 75 mM phosphoric acid and once in methanol prior to drying and scintillation counting. In addition positive control wells contain all components of the reaction, except the compound of interest; however, DMSO (at a final concentration of 2%) were included in these wells to control for solvent effects as well as blank wells contain all components of the reaction, with a reference inhibitor replacing the compound of interest. This abolishes kinase activity and establishes the base-line (0% kinase activity remaining). The potency of each compound was reported by estimating the EC50.

[1] = Formation of glutathione adducts (GSH reactivity, HPLC-UV); format: in vitro ADME; details: 10 mM GSH, 20 micromolar test article, pH 7.4, 37° C.
Procedure: Generation of non-specific thiol adducts can be measured by assaying reactivity of compounds with GSH. Formation of GSH adducts was measured by incubating GSH (10 mM) in 100 mM Phosphate Buffer pH 7.4 with test article at 20 micromolar final concentration. Briefly, 600 microliters of phosphate buffer pH 7.4 was added in a glass vial with 200 microliters of 100 micromolar test article in DMSO. Samples were warmed at 37° C. for 10 minutes and the reaction was initiated by the addition of 200 microliters of 50 mM reduced GSH in phosphate buffer pH 7.4 and incubated at 37° C. At various time points (0.5 min, 5 min, 15 min, 30 min, 60 min, 120 min and 180 min) 50 microliter aliquots were placed into an injection vial equipped with an insert and mixed with 50 microliters of 1% formic acid in 99% Methanol. Vials were loaded onto the HPLC injection tray and each sample was injected onto a C18 column (ACE 3 C18, 4.6×50 mm column) and both the parent and product were monitored by UV absorbance at 254 nm on an Agilent Technologies 1100 series HPLC. Peaks were integrated and the percentage of product present calculated as the percent of the total peak area on the parent and product at 60 minutes.

[2] = system: TMD-8 human activated B cell diffuse large B cell lymphoma cells; test: TMD-8 survival assay (Cell Titer-Glo); format: cell-based; details: TMD8, TMD-8 cells, 72 h
Procedure: TMD-8 human activated B cell diffuse large B cell lymphoma cells were seeded in 96-well plates at a density of 20,000 cells/well in HyClone RPMI supplemented with 10% FBS (Fisher)/1% Penicillin/Streptomycin (HyClone) and incubated at 37° C., 5% CO2. Cells were treated in triplicate with 1,000 nM or 100 nM curves of compounds for 72h. Cell survival was measured by Cell Titer-Glo Luminescent Assay (Promega). EC50 values (50% proliferation in the presence of compound as compared to vehicle treated controls) were calculated from dose response compound curves using GraphPad Prism Software.

splenocytes = test: Splenic cell proliferation assay (anti-IgM stimulated, Cell Titer-Glo); format: cell-based, mouse (CD1); details: Splenocyte; mouse splenocytes, 2.5 μg/ml anti-IgM F(ab')2, 72 h; read-out: Spleen cell EC50
Procedure: Proliferation of splenocytes in response to anti-IgM can be blocked by inhibition of BTK. Splenocytes were obtained from 6 week old male CD1 mice (Charles River Laboratories Inc.). Mouse spleens were manually disrupted in PBS and filtered using a 70um cell strainer followed by ammonium chloride red blood cell lysis. Cells were washed, resuspended in Splenocyte Medium (HyClone RPMI supplemented with 10% heat-inactivated FBS, 0.5X non-essential amino acids, 10 mM HEPES, 50 μM beta mercaptoethanol) and incubated at 37° C., 5% CO2 for 2h to remove adherent cells. Suspension cells were seeded in 96 well plates at 50,000 cells per well and incubated at 37° C., 5% CO2 for 1h. Splenocytes were pre-treated in triplicate with 10,000 nM curves of Formula 1 compounds for 1h, followed by stimulation of cell proliferation with 2.5 μg/ml anti-IgM
F(ab′)2 (Jackson ImmunoResearch) for 72 h. Cell proliferation was measured by Cell Titer-Glo Luminescent Assay (Promega). EC50 values (50% proliferation in the presence of compound as compared to vehicle treated controls) were calculated from dose response compound curves using GraphPad Prism Software.

[3] = Mouse plasma pharmacokinetics; format: in vivo, mouse (CD-1); details: male, CD-1, mouse, mice
Procedure: Plasma pharmacokinetic studies were conducted in CD1 mice to compare the plasma exposure following oral and intravenous administration of the free-base form of each compound to mice and to calculate bioavailability. Male CD-1 mice (25-30 g on delivery; Charles River) were used for mouse PK studies. The mice were housed 3 per cage in a room under controlled conditions of temperature ([…]) and humidity (40-70%), with a 12 h dark/light cycle. The animals were acclimated for a minimum of 3 days prior to use and received standard rodent chow (Charles River) and municipal tap water ad libitum. Nine animals were used per study, they were dosed PO or IV and bled from the mandibular vein, 2 to 3 times per animal at the following time points; pre dose, 15 and 30 min, 1, 2, 3, 5, 7 and 24 h (0.1 mL whole blood /time point; composite PK). Blood was collected into microvette K3E tubes ([…]) at RT and then centrifuged at 5,000 RPM for 2 min at 4° C. in order to separate plasma. Isolated plasma (0.015 mL/time point) was pipetted into 96 well plates (Canadian Life Science) which were stored at minus 20° C. until analysis (2 duplicate plates per study).
Concentrations of compound in rodent plasma samples were determined by LC-MS-MS. Two standard curves containing 8 points each were prepared by spiking in methanol or plasma with a solution containing the test article at a defined concentration. The range of final compound concentration in the standard curve was 0 to 1 μg/mL. Three sets of quality control (QC) samples in plasma at low, medium and high concentration within the standard curve range were also prepared. For analysis, the compound was extracted using protein precipitation extraction procedure. Briefly, a three-fold volume of methanol containing an internal standard was added to the plasma and standard curve solution samples and then incubated at 4° C. for 5 minutes. The plates were centrifuged for 30 minutes at 4° C. at 4000 rpm and the resulting supernatant was transferred to a 96-well propylene plates and sealed with cover to avoid sample evaporation. Ten μL aliquots of extracted samples were injected using a 96-well plate autosampler held at 4° C. onto a ACE C18 50×4.6 mm, 3 um HPLC column held at 30° C. Plasma derived parent compound was eluted using the following conditions: pump flow rate was set at 1 mL/min for a five minutes chromatographic method using a 3 min gradient elution from 20% solvent A (0.1% formic acid in water) and 80% solvent B (0.1% Formic Acid in Methanol) to 10% solvent A and 90% solvent B. The method was followed by 1 min column wash at 95% solvent B and 1 min column re-equilibration back to 80% solvent B. Under these conditions the compound was eluted after 1.8 minutes. For LC-MS-MS compound detection, the curtain gas was set at 10, collision gas was set at 8, ion spray voltage was set at 4500, temperature was set at 500, ion source gas 1 was set at 40 and ion source gas 2 was set at 60. Using a positive ionization mode, the MRM transition monitored was set at […]. Under these conditions, standard curves were linear up to 2000 ng/mL, the lower limit of quantification was generally at 10 ng/mL.
The area under the curve (AUCtot and AUClast), the maximum plasma concentration (Cmax) and time (Tmax), and terminal half life (T1/2), clearance and volume of distribution were calculated by regression analysis using Kinetica version 5.0 (Thermo Fisher Scientific) using a Non-Compartmental Extravascular/IV Bolus analysis model.

T1 sequence (Q06187 whole entry): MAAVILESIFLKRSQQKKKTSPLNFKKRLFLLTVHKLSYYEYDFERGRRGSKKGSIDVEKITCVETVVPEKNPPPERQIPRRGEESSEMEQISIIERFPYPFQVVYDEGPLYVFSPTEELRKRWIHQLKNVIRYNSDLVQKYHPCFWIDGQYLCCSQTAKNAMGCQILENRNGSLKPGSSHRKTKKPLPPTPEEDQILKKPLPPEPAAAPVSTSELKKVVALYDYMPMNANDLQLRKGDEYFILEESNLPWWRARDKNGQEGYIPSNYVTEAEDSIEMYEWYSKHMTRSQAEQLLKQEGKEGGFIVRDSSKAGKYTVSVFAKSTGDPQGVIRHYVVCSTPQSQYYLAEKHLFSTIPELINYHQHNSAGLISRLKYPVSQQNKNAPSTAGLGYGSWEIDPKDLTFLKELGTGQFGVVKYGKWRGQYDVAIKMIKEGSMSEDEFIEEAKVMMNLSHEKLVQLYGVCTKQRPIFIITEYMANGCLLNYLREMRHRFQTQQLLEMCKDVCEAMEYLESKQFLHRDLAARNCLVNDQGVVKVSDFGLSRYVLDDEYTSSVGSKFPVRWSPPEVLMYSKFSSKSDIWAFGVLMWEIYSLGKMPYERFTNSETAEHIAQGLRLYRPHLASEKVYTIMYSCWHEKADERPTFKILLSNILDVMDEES

| IC50 (human BTK) [nM] | GSH Reactivity GSH Conjugate at 60 minutes [1] | AUC ([3]; intravenous 3 mg/kg, free base, read-out: Intravenous AUC) [ng·h/mL] | bioavailability ([3]; oral 10 mg/kg vs intravenous 3 mg/kg) [%] | Cmax ([3]; oral 10 mg/kg, free base) [ng/mL] | AUC ([3]; oral 10 mg/kg, free base, read-out: Oral AUC) [ng·h/mL] | SMILES | EC50 [2] [nM] | EC50 (splenocytes) [nM] |
| --- | --- | --- | --- | --- | --- | --- | --- | --- |
| 10 | 12.6 % of total Peaks |  |  |  |  | C=CC(=O)N[C@H]1C[C@@H](n2nc(-c3ccc(Oc4ccc(F)cc4F)cc3)c3c(N)ncnc32)C1 [Compound 3] | 6.5 | 0.9 |
| 1 | 8.4 % of total Peaks |  |  |  |  | CC#CC(=O)N(C)[C@H]1C[C@@H](n2nc(-c3ccc(Oc4ccccc4)cc3)c3c(N)ncnc32)C1 [Compound 4] | 5.4 | 0.8 |
| 0.7 | 28.9 % of total Peaks |  |  |  |  | C=CC(=O)N(C)[C@H]1C[C@@H](n2nc(-c3ccc(Oc4ccccc4)cc3)c3c(N)ncnc32)C1 [Compound 5] | 1.9 | 0.5 |
| 3 | 12.6 % of total Peaks |  |  |  |  | C=CC(=O)N[C@H]1C[C@@H](n2nc(-c3ccc(Oc4ccccc4)cc3F)c3c(N)ncnc32)C1 [Compound 6] | 3 | 0.4 |
| 1 | 5.9 % of total Peaks |  |  |  |  | CC#CC(=O)N[C@H]1C[C@@H](n2nc(-c3ccc(Oc4ccccc4)cc3F)c3c(N)ncnc32)C1 [Compound 7] | 1.5 | 0.4 |
|  | 31.7 % of total Peaks | 1070 | 9.8 | 219 | 349 | C=CC(=O)N1CCC[C@@H](n2nc(-c3ccc(Oc4ccccc4)cc3)c3c(N)ncnc32)C1 [Reference, 1-((R)-3-(4-amino-3-(4-phenoxyphenyl)-1H-pyrazolo[3,4-d]pyrimidin-1-yl)piperidin-1-yl)prop-2-en-1-one, reference compound] | 2 | 0.4 |
